Reference: patent US20210161915A1, “GABA-A ANTAGONISTS FOR TREATING SUBSTANCE […]” (ASARINA PHARMA APS, priority 2018, published 2021)
“Also recorded” adds a separate entry of the source. Read-outs that look alike come from different tables or passages of the source.

What was measured:
female Wistar rats = test: Allopregnanolone-induced loss of righting reflex (LoR) test; format: in vivo, rat; settings: for Animals (%) not showing LoR after allopregnanolone injection: allopregnanolone 2 mg/kg i.v.
Procedure: The compound by 3beta-fluor-5alpha-pregnan-20-one (UC2016) was analyzed for antagonism of the allopregnanolone-induced loss of righting reflex (LoR) in female Wistar rats.
Study design: Allopregnanolone was dissolved 2 mg/ml in 10% 2-hydroxy-beta-cyclodextrin (beta-CD), with the use of ultra sound. 3beta-fluor-5alpha-pregnan-20-one (UC2016) dissolved in MCT (10 mg/ml) was injected s.c. 30 and 60 minutes before i.v. 2 mg/kg allopregnanolone. UC2016, in different concentrations (1-20 mg/kg) were given s.c. 30 or 60 minutes before the acute i.v. allopregnanolone-induced LoR. To study if MCT oil alone interferes with the acute i.v. allopregnanolone-induced LoR, MCT oil was given s.c. 30 or 60 min before the allopregnanolone injection. Doses given were from 1 mg/kg to 20 mg/kg UC2016 s.c.
Animals: Female Wistar rats (n=12) from Taconics, Denmark were used. At arrival rats weighted 250 g. For identification the rats were marked with numbers on their tail with a permanent marker. The animals were housed four in each cage for 6 weeks and thereafter two in each cage at the Umea Centre for Comparative Biology (UCCB) animal facility at Umea University, where also all experiments took place. Housing room temperature was kept at 22-23° C. Lights on and off were monitored 12/12 h light/dark; lights on at 06.00 and off at 18.00. Food and water was available ad libitum. The study protocol was approved by the Regional Ethics Committee of Umeå, Sweden.
Handling: To avoid stress during the experimental session, animals were daily handled the week before testing. Handling included moments used during the test, i.e. holding, tail warming in water, and wrapping in op-blanket.
Solutions: Allopregnanolone (Umecrine AB, batch L00019654), was dissolved in 10% or 30% 2-hydroxypropyl-β-cyclodextrin (HPβ-CD; Sigma, H-107) with the use of ultra sound. MCT oil and Solution of UC2016; 10 mg/ml in MCT oil, were provided by XSpray Microparticles AB (Stockholm).
Allopregnanolone-induced loss of righting reflex (LoR) test: During testing, the rat was weighted, the tail was warmed in water (43° C.) for three minutes, and the rat was wrapped in an op-blanket and hold for injection. The test solution was injected i.v. in one of the tail veins during 30 s (optimal injection rate for allopregnanolone, 4 mg/kg/min, Zhu et al 2001), and the needle then kept in place for additional 30 s. The time point for the end of the actual injection was noted. The rat was then placed in a separate cage and LoR was tested by laying the rat on the right side. Rats with LoR stayed on side, and the time until righting was followed. Rats with no LoR could not be placed on side, as the righting reflex immediate corrected the orientation of the body so that the rat was standing on its paws. The effects of the different injections were followed by the two evaluators for approximately 10 min, and the rat was then taken back to its home cage. LoR is an early event at anesthesia, and this fact is used in the test. Allopregnanolone is a strong anesthetic substance, an agonist at the GABAA receptor, and LoR is in the test induced during the 30 seconds with the injection of the substance. At tests of possible allopregnanolone antagonists, the antagonistic effect is thus observed immediately after the injection, i.e. when the rat is placed in the test cage.

[1] = molecular target: T1, human alpha1,beta2,gamma2 Long GABAA receptor subtype (Homo sapiens, UniProt P14867+P47870); test: Patch-clamp (Dynaflow system) current response in HEK-293 cells transfected with alpha1,beta2,gamma2 Long GABAA receptor; format: cell-based
T1 construct: expressed in transfected cells; host or cells: HEK-293
Procedure: (§1) In these tests the protocol was optimized to be similar to the physiological conditions in the synaptic cleft.
(§2) Cell culture: HEK-293 cells, permanently transfected with the human alpha1,beta,gamma and alpha4,beta,delta GABAA receptor subtypes, were seeded at a density of 3×10^4/25 cm^2 in a culture flask. The transfected cells were used for patch-clamp experiments 3 days after seeding. When using the cells for patch-clamp experiments the cells were washed twice with oxygen-bubbled extra cellular (EC) solution (see below). About 5 mL EC was then added and the cells were kept in the incubator for about 15 minutes. After 15 minutes the cells came loose from the bottom of the flask and were separated by carefully sucking a couple of times with a Pasteur pipette.
(§3) Dynaflow™ system with Resolve chip was used for patch-clamp experiments: The electrophysiological recordings from HEK-293 cells were performed under voltage-clamp conditions using patch-clamp technique and the Dynaflow™ system (Dynaflow Pro II Platform Zeiss Axiovert 25; Cellectricon AB, Sweden) with Resolve chips as application system.
(§4) Patch pipettes were pulled from borosilicate glass and polished to a resistance 2-5 MΩ when filled with suitable intracellular solution (IC) (pH was adjusted to 7.2) and immersed in bath solution (extracellular, EC) (pH is adjusted to 7.4).
(§5) The recordings were made using an Axopatch 200B amplifier, a Digidata 1322A (Axon instruments, Foster city, USA). Data were analysed using the pCLAMP software sampled at 10 kHz, filtered at 2-10 kHz and analyzed with Clampfit (versions 9.0, both from Axon instruments, Foster city, USA). No higher series resistance than 20 MΩ between pipette and cell membrane was accepted. No series resistance compensation was used. The stability of series resistance was monitored repeatedly from the time course of capacitative transients during the experiments. The measured liquid-junction potential between EC and IC was subtracted in all data presented. All experiments were performed at room temperature (21-23° C.).
(§6) All steroids were dissolved to the concentration of 6 mM in DMSO. […] End solutions were the solutions added into the wells of the chip.
(§7) Electrophysiology: After compensating for the liquid junction potential a steady holding potential of −17 mV was used in all experiments. […] By using the holding potential of −17 mV and the intracellular solution with low chloride ion concentration the chloride ions flux into the cell when the receptors were activated.
The Dynaflow system allowed application of solutions for as short as 40 ms up to minutes in time.
In the experiments, THDOC and 3alpha-OH-adiol were used as the positive GABAA receptor modulating steroids.
(§8) Different incubation times were studied to achieve the optimal time for attaining stable results and minimize the washout time.
Study design: Studies were conducted on current response mediated by chloride ion flux through the GABAA receptor. […] The same patch-clamp technique was used as described above (Example 1) using the Dynaflow™ application system. THDOC was used as positive GABAA receptor modulating steroid as it has shorter washout time compared to allopregnanolone but works with the same mechanisms on the same GABAA receptor binding site as allopregnanolone.
HEK-293 cells, permanently transfected with cDNA expressing the human alpha1,beta2,gamma2 Long GABAA receptor subtype. The tissue culture and the handling of the cells were as described in Example 1. In the patch-clamp experiments the transfected cells were used minimum two passages after defrosting and 3 days after seeding. The cells were seeded for maximal 25 times.

[2] = molecular target: T2, human alpha4,beta,delta GABAA receptor subtype (Homo sapiens, UniProt P28472+P48169); test: Patch-clamp (Dynaflow system) current response in HEK-293 cells transfected with alpha4,beta3,delta GABAA receptor; format: cell-based
T2 construct: expressed in transfected cells; host or cells: HEK-293
Procedure: as §1, §2, §3, §4, §5, §6, §7
The Dynaflow system allowed application of solutions for as short as 40 ms up to minutes in time. […] There was no difference in response between the second and the third GABA application. Therefore, the first GABA application was always repeated twice and the second response was used in the analysis.
Washout: GABA is quite soluble in water and easy to washout from the receptor. […] Steroids on the other hand were difficult to dissolve in water and also difficult to washout from the receptor. In the experiments, THDOC and 3alpha-OH-adiol were used as the positive GABAA receptor modulating steroids. With 2 minutes washout time, 200 nM THDOC and 3alpha-OH-adiol was completely washed out as shown by neither an accumulative nor a desensitization effect.
as §8

T2 sequence (P48169 36-554): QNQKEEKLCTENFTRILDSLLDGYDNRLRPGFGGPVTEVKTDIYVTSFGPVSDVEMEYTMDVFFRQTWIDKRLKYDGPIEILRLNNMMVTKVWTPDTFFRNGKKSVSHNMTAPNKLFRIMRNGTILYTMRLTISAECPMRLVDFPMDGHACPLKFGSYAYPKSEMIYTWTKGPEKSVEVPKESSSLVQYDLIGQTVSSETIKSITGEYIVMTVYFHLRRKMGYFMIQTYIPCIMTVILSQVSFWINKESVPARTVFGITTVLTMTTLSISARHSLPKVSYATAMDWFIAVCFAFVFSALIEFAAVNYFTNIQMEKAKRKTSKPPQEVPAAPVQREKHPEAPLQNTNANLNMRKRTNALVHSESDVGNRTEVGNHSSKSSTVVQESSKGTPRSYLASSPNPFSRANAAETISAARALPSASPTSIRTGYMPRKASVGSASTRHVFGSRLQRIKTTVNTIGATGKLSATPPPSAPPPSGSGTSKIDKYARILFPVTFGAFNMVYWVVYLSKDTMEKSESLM
T2 sequence (P28472 26-473): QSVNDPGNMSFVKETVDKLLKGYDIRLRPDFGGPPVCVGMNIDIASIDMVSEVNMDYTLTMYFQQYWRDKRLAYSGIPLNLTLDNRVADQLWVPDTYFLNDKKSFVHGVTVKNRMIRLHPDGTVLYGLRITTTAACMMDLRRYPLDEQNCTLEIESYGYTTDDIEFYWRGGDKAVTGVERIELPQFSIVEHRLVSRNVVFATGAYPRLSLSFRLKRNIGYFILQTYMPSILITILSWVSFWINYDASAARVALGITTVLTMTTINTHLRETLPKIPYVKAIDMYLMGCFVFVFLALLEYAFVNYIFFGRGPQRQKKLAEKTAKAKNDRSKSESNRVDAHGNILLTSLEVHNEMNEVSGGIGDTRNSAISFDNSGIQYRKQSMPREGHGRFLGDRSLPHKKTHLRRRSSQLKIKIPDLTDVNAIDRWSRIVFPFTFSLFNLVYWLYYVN
T2 sequence (O14764 17-452 partner limits assumed): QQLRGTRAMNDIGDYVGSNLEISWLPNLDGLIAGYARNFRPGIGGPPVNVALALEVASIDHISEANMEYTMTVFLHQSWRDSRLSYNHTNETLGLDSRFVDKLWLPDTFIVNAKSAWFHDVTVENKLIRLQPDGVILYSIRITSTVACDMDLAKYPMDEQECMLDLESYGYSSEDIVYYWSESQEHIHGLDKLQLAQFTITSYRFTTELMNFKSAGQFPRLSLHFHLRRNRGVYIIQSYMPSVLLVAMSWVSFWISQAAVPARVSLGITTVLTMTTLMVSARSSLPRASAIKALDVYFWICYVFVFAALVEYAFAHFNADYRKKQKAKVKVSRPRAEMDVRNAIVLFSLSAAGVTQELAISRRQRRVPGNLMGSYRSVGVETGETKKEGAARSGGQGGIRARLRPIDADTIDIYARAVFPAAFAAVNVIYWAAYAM
T1 sequence (P14867 28-456): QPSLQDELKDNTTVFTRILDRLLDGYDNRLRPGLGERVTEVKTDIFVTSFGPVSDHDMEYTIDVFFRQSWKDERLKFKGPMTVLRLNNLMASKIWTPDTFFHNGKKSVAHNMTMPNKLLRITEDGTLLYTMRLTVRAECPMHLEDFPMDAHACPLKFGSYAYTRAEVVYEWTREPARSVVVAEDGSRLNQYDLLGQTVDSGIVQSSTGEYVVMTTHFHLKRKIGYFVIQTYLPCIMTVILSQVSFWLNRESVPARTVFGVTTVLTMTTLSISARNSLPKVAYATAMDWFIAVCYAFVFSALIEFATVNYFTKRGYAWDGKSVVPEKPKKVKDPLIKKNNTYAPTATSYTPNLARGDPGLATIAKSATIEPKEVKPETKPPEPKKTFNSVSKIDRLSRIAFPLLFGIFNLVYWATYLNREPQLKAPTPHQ
T1 sequence (P47870 25-512 limits assumed): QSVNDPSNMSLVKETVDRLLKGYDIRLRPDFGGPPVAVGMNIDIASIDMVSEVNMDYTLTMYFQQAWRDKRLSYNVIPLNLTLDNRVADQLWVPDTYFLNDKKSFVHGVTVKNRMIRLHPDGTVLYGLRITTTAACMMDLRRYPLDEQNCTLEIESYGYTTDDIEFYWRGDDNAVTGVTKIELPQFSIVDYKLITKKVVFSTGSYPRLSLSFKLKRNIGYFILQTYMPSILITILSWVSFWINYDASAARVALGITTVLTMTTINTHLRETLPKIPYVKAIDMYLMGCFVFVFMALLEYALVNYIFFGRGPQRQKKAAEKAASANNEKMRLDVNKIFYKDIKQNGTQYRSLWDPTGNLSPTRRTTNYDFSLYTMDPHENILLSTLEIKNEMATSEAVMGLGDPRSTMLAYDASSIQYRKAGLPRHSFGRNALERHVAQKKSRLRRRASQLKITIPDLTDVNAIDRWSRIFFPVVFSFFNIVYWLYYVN
T1 sequence (P18507 40-475 partner): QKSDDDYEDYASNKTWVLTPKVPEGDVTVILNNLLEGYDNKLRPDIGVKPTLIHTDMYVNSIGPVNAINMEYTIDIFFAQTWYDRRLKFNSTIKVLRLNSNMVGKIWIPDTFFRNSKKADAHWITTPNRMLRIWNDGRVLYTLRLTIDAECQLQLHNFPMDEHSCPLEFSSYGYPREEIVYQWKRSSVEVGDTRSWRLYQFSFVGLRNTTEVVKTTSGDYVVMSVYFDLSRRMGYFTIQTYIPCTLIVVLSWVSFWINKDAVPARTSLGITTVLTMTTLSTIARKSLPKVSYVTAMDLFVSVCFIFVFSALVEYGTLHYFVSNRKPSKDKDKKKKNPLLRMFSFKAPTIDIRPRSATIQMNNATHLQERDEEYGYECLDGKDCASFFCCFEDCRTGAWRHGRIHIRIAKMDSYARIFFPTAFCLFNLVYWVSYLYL

For CC(=O)[C@H]1CC[C@H]2[C@@H]3CC[C@H]4C[C@H](O)CC[C@]4(C)[C@H]3CC[C@]12C [Allopregnanolone, allopregnanolone, reference compound], the “Induction of LoR” value (female Wistar rats; allopregnanolone 2 mg/kg i.v. alone) was “induces LoR in all female Wistar rats”.
C[C@]12CC[C@@H](O)C[C@@H]1CC[C@@H]1[C@@H]2CC[C@]2(C)C(O)CC[C@@H]12 (stereo partly drawn) [Androstanediol, 3alpha-hydroxy-5alpha-androstan-17-ol, reference compound] was tested, and the EC50 [1] was 3400 nM, the “Androstanediol effect without GABA” value ([1]; data not shown) was “no effect without GABA” and the EC50 [2] was 380 nM. For the same compound, the “Baseline shift, current response in absence of GABA, Mean ± SEM pA” value ([2]; 3 μM Androstanediol) was “+8 ± 3.6 pA” and the “Baseline shift, current response in absence of GABA, Mean ± SEM pA” value ([2]; 10 μM Androstanediol) was “+13 ± 4.8 pA”.
With C[C@]12CC[C@@H](O)C[C@H]1CC[C@@H]1[C@@H]2CC[C@]2(C)[C@@H](C(=O)CO)CC[C@@H]12 [THDOC, Tetrahydrodeoxycorticosterone, reference compound] the Imax/Emax ([1]; 0.03-1 μM THDOC + 30 μM GABA) was “+115%”, the “THDOC induced tonic effect (baseline shift)” value ([1]; without GABA) was “did not induce any baseline shift” and the “Emax, enhancement of GABA mediated current response” value [2] was 297%. For the same compound, the EC50 ([2]; read-out: EC50, enhancement of GABA mediated current response) was 47 nM and the “THDOC induced baseline shift” value ([2]; without GABA, data not shown) was “induces a baseline shift”.
CC(=O)[C@H]1CC[C@H]2[C@@H]3CC[C@H]4C[C@@H](F)CC[C@]4(C)[C@H]3CC[C@]12C [UC2016, 3beta-fluor-5alpha-pregnan-20-one] was tested, and the “[UC2016] + 30 μM GABA + 200 nM THDOC, Mean ± SEM (%)” value ([1]; 0.1 μM UC2016) was −4.7 ± 3.5%, the “[UC2016] + 30 μM GABA + 200 nM THDOC, Mean ± SEM (%)” value ([1]; 0.3 μM UC2016) was −11.6 ± 5.5% and the “[UC2016] + 30 μM GABA + 200 nM THDOC, Mean ± SEM (%)” value ([1]; 1 μM UC2016) was −25.1 ± 3.5%. The “Imax/Emax, effect on GABA response” value ([1]; 1 μM UC2016 + 30 μM GABA) was −8.6 ± 1.7%, the “Effect of compound alone (baseline shift)” value ([1]; 1 μM UC2016, absence of GABA) was “no effect on baseline shift; also recorded: UC2016 had no effect in absence of GABA” and the “Antagonism of allopregnanolone induction of LoR” value (female Wistar rats; 1 mg/kg s.c., 60 min before allopregnanolone) was “clearly antagonized”. For the same compound, the “Inhibition of LoR induction by allopregnanolone” value (“Inhibition of LoR induction” for short) (female Wistar rats; 5 mg/kg s.c., 30 minutes before allopregnanolone) was “not”, the “Inhibition of LoR induction” value (female Wistar rats; 5 mg/kg s.c., 60 minutes before allopregnanolone) was “had an inhibitory effect” and the “Inhibition of LoR induction” value (female Wistar rats; 10 mg/kg or higher s.c., 30 min before allopregnanolone) was “inhibited LoR induction”. The “Animals (%) not showing LoR after allopregnanolone injection” value (“Animals (%) not showing LoR” below) (female Wistar rats; UC2016 1 mg/kg s.c. in MCT oil) was 100%, the “Animals (%) not showing LoR” value (female Wistar rats; UC2016 2 mg/kg s.c. in MCT oil) was 80% and the “Animals (%) not showing LoR” value (female Wistar rats; UC2016 10 mg/kg s.c. in MCT oil) was 100%. The “Animals (%) not showing LoR” value (female Wistar rats; UC2016 20 mg/kg s.c. in MCT oil) was 100%.
